Test results taken from US8734775B2, “Chemokine derived peptides that bind with chemokine receptor CXCR3 and uses for chronic wound and angiogenesis inhibition treatments” (University of Pittsburgh, priority 2011, dated 2014).

Experiments:
CXCR3 on HMEC-1 cells = target: T1, CXCR3 on HMEC-1 cells (Homo sapiens, UniProt P49682); experiment: Flow cytometry binding of biotin-tagged peptide to HMEC-1 cells
T1 construct: HMEC-1 cells express CXCR3; endogenous in cells; host or cells: HMEC-1 (human dermal microvascular endothelial cells)
T1 sequence (P49682 1-415 isoform P49682-2): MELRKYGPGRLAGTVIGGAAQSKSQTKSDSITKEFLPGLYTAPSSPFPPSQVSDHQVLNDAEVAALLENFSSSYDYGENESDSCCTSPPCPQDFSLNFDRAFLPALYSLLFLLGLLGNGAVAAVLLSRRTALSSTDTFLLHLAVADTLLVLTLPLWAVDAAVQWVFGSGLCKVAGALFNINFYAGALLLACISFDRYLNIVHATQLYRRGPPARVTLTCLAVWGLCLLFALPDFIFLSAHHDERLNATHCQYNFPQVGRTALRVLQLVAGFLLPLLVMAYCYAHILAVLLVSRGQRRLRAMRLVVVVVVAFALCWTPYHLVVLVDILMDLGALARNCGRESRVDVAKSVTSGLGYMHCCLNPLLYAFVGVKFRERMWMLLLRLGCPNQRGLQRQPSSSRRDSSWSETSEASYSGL
Experimental: In the various experiments described below, unless otherwise noted, Biotin labeling was accomplished according to the following procedure. Sulfo-NHS-LC-Biotin (Thermo Scientific 21327) was prepared to result in a 10 mM solution of Biotin. IP-10, IP-10dp or anti-CXCR3 neutralizing antibody were dissolved in PBS according to result in a 20-fold molar excess of biotin reagent to give a 4-6 biotin groups per peptide molecule. The biotin reagent and IP-10 and/or IP-10dp was mixed and incubated on ice for 2 hours. Appropriate controls were used to determine the levels of biotin incorporation. HMEC-1 cells were washed in ice-cold PBS (pH 8) to remove amine-containing media and proteins. Cells were suspended and Sulfo-NHS-LC-Biotin label peptide was added. Mixture was incubated at 4° C. to reduce active internalization of the biotin reagent for 30 minutes. Cells were then washed three times in PBS+100 mM glycine to quench and remove excess biotin. Cells were then incubated with streptavidin conjugated with FITC and analyzed on a BD FACSCalbur flow cytometer.
To determine whether IP-10dp binds to CXCR3 on human dermal microvascular endothelial cells, we analyzed the ability of Sulfo-LC-Biotin tagged IP-10 and IP-10dp to bind to H MEC-1 cells using flow cytometery. […] The cells were then incubated with FITC conjugated with streptavidin, and then analyzed on a BD FACSCalbur flow cytometer. […]

HMEC-1 cells = experiment: Tube formation on growth factor reduced Matrigel; format: cell-based, human
Experimental: To determine whether the IP-10 peptide is able to inhibit tube formation, HMEC-1 cells were grown on growth factor reduced (“GFR”) Matrigel in the presence of VEGF165, IP-10 and/or IP-10dp and the cultures inspected and compared to asses the relative degree of tube formation according to the following procedure. GFR Matrigel 10 μl/well (μ-angiogenesis slide, Ibidi), was incubated for 15 minutes at 37° C. HMEC-1 cells (10,000 cells/well) were re-suspended in 1.0% FBS MDCB131 media containing VEGF (75 ng/ml), IP-10 (300 ng/ml) and IP-10dp (10 μM) and or anti-CXCR3 neutralizing antibody. Treated cells (1×10^4 cells/well) were added to 24-well culture plates coated with growth factor reduced Matrigel and incubated for 24 hours at 37° C. to allow tube formation.
The cells cultures were then imaged for tube formation using an Olympus IX70 microscope equipped with a Hammastu camera using MetaView™ software (Universal Imaging Corporation, Downington, Pa.). FIG. 4A is a grid of six labeled black and white photographs taken at this 24 hour point with 4× magnification showing the following representative cell cultures from upper left to lower right: a control culture having no treatment, a culture having treatment only with IP-10, a culture having treatment only with IP-10dp, a culture having treatment only with VEGF, a culture having treatment with combined VEGF and IP-10, and a culture having treatment with combined VEGF and IP-10dp.
Analysis of tube formation was preformed using MetaMorph (obtained from Universal Imaging Corporation, Downington, Pa.), and the results reported in the graph of FIG. 4 are shown as a percent of the no-treatment control. The data reported therein are of N=6 and normalized to no treatment (average±SEM), with *P<0.05. As shown by the graph, IP-10 peptide is able to inhibit tube formation. In particular, after incubation for 24 hours, the HMEC-1 cells cultures were able to form tubes in the presence or absence of VEGF165 (compare the photographic images in FIG. 4A).

[1] = tested on: VEGF-induced newly formed vessels; experiment: In vivo Matrigel plug assay, regression of newly formed vessels; parameters: species or system C57BL/6J mice; settings: mice; injected into plug at days 10 and 12, examined day 17; IP-10 10 μg, IP-10dp 100 μg
Experimental: Further, to verify that IP-10dp is able to cause regression of newly formed vessels in vivo, parallel experiments were conducted on similar mice whereby GFR Matrigel supplemented with VEGF (200 ng/ml) was first injected into both the left and right side groins of mice (establishing a control location and a test location). After 10 days, the left side Matrigel plug was removed (control, n=6) and stained as above for histological examination, with the left side samples being used to establish the extent of new vessel invasion at 10 days. The remaining right side Matrigel plug in the mice was injected with either IP-10 (10 μg) or IP-10dp (100 μg) at days 10 and 12. Day 17, the right side Matrigel plugs were removed and stained for examination as above. FIG. 8D through FIG. 8G are color photographs of tissue samples, showing both 10× and 40× magnifications, taken from laboratory C57BL/6J mice. […]

## PESKAIKNLLKAVSKEMSKRSP (IP-10dp; listed as Homo sapiens) [synthetic fragment of IP-10 comprising residues 78-98, the C-terminal α-helical domain]
CXCR3 on HMEC-1 cells; Sulfo-LC-Biotin tagged peptide, streptavidin-FITC, flow cytometry
  binding to HMEC-1 cells: binds to human endothelial cells
CXCR3 on HMEC-1 cells; relative to control, biotin-tagged
  fluorescence intensity of binding to CXCR3 on HMEC-1 cells compared with full length IP-10: slightly lower fluorescence intensity
HMEC-1 cells; IP-10dp 10 μM plus VEGF 75 ng/ml, 24 hours
  tubes formed in the presence of VEGF165: significant reduction
HMEC-1 cells; IP-10dp 10 μM, no VEGF, 24 hours
  tubes formed compared to control: significant reduction in tubes formed
HMEC-1 cells; presence and absence of VEGF, IP-10dp 10 μM vs IP-10 300 ng/ml
  inhibition of tube formation compared with full length IP-10: slightly better
[1]
  regression of vessels compared to saline control: significant regression of vessels
